Reference: patent US20210186020A1, “AGRICULTURAL COMPOSITIONS AND METHODS OF USE THEREOF” (Valent U.S.A. LLC, priority 2019, published 2021)

Tests used:
broadleaf grass = experiment: Spray-chamber efficacy of S-3100 with or without fertilizer on potted broadleaf grass; type: in vivo; conditions: broadleaf grass 10 inches, S-3100 20 grams/ha, Fertilizer 14 liters/ha, 1% v/v Agridex (combination also 1% v/v Intact)
Description: 4 trials were conducted on the efficacy of ethyl [3-[2-chloro-4-fluoro-5-(1-methyl-6-trifluoromethyl-2,4-dioxo-1,2,3,4-tetrahydropyrimidin-3-yl)phenoxy]-2-pyridyloxy]acetate (“S-3100”) with or without a mannitol and/or sorbitol comprising fertilizer. Specifically, 4 pots of broadleaf grass were grown to 10 inches in height. These pots were placed in a spray chamber for treatment. All compositions contained 1% v/v of Agridex®. The composition containing S-3100 and fertilizer contained 1% v/v of Intact™. Treatments and results can be found in Table 2, below.

barnyard grass = experiment: Spray-chamber efficacy of S-3100 with or without fertilizer on potted barnyard grass; type: in vivo, Echinochloa crus-galli; conditions: barnyard grass 10 inches, S-3100 20 grams/ha, Fertilizer 14 liters/ha, 1% v/v Agridex (combination also 1% v/v Intact)
Description: 4 trials were conducted on the efficacy of ethyl [3-[2-chloro-4-fluoro-5-(1-methyl-6-trifluoromethyl-2,4-dioxo-1,2,3,4-tetrahydropyrimidin-3-yl)phenoxy]-2-pyridyloxy]acetate (“S-3100”) with or without a mannitol and/or sorbitol comprising fertilizer. Specifically, 4 pots of barnyard grass were grown to 10 inches in height. These pots were placed in a spray chamber for treatment. All compositions contained 1% v/v of Agridex®. The composition containing S-3100 and fertilizer contained 1% v/v of Intact™. Treatments and results can be found in Table 1, below.

volunteer corn = experiment: Spray-chamber efficacy of S-3100 with or without fertilizer on potted volunteer corn; type: in vivo, Zea mays; conditions: volunteer corn 15 inches, S-3100 20 grams/ha, Fertilizer 14 liters/ha, 1% v/v Agridex (combination also 1% v/v Intact)
Description: 4 trials were conducted on the efficacy of ethyl [3-[2-chloro-4-fluoro-5-(1-methyl-6-trifluoromethyl-2,4-dioxo-1,2,3,4-tetrahydropyrimidin-3-yl)phenoxy]-2-pyridyloxy]acetate (“S-3100”) with or without a mannitol and/or sorbitol comprising fertilizer. Specifically, 4 pots of volunteer corn were grown to 15 inches in height. These pots were placed in a spray chamber for treatment. All compositions contained 1% v/v of Agridex®. The composition containing S-3100 and fertilizer contained 1% v/v of Intact™. Treatments and results can be found in Table 4, below.

giant foxtail = experiment: Spray-chamber efficacy of S-3100 with or without fertilizer on potted giant foxtail; type: in vivo, Setaria faberi; conditions: giant foxtail 10 inches, S-3100 20 grams/ha, Fertilizer 14 liters/ha, 1% v/v Agridex (combination also 1% v/v Intact)
Description: 4 trials were conducted on the efficacy of ethyl [3-[2-chloro-4-fluoro-5-(1-methyl-6-trifluoromethyl-2,4-dioxo-1,2,3,4-tetrahydropyrimidin-3-yl)phenoxy]-2-pyridyloxy]acetate (“S-3100”) with or without a mannitol and/or sorbitol comprising fertilizer. Specifically, 4 pots of giant foxtail were grown to 10 inches in height. These pots were placed in a spray chamber for treatment. All compositions contained 1% v/v of Agridex®. The composition containing S-3100 and fertilizer contained 1% v/v of Intact™. Treatments and results can be found in Table 3, below.

CCOC(=O)COc1ncccc1Oc1cc(-n2c(=O)cc(C(F)(F)F)n(C)c2=O)c(F)cc1Cl [S-3100, ethyl [3-[2-chloro-4-fluoro-5-(1-methyl-6-trifluoromethyl-2,4-dioxo-1,2,3,4-tetrahydropyrimidin-3-yl)phenoxy]-2-pyridyloxy]acetate]
% control, 3 Days After Treatment (broadleaf grass; 3 DAT): 75.0%
% control, 7 Days After Treatment (broadleaf grass; 7 DAT): 93.0%
% control, 14 Days After Treatment (broadleaf grass; 14 DAT): 84.2%
% control, 3 Days After Treatment (barnyard grass; 3 DAT): 73.3%
% control, 7 Days After Treatment (barnyard grass; 7 DAT): 85.2%
% control, 13 Days After Treatment (barnyard grass; 13 DAT): 84.7%
% control, 3 Days After Treatment (volunteer corn; 3 DAT): 65.0%
% control, 7 Days After Treatment (volunteer corn; 7 DAT): 59.2%
% control, 14 Days After Treatment (volunteer corn; 14 DAT): 56.7%
% control, 3 Days After Treatment (giant foxtail; 3 DAT): 76.7%
% control, 7 Days After Treatment (giant foxtail; 7 DAT): 95.5%
% control, 14 Days After Treatment (giant foxtail; 14 DAT): 96.1%
